Assay results published in US20090192095A1 (priority 2008, published 2009).
Where “and” joins values, the source holds several entries; their conditions need not be identical. Identical values can stand only once. Counter-ions that a name gives are not always drawn. Like-named read-outs stand apart in the source and are kept apart here.

Tests used:
[1] = for Simulated gastric fluid (pH 1.1): % remaining after 2 h/37° C. / Simulated intestinal fluid (pH 6.8): % remaining after 2 h/37° C.: simulated gi fluid
[2] = test system: rat colon circular muscle strips; format: cell-based; parameters: unit not given here; conditions: rat colonic strips, EFS
acetyl choline esterase = acetyl choline esterase (Homo sapiens, UniProt P22303); assay: In vitro assessment with a human acetyl choline esterase preparation; format: biochemical
Chain of acetyl choline esterase (P22303 32-614): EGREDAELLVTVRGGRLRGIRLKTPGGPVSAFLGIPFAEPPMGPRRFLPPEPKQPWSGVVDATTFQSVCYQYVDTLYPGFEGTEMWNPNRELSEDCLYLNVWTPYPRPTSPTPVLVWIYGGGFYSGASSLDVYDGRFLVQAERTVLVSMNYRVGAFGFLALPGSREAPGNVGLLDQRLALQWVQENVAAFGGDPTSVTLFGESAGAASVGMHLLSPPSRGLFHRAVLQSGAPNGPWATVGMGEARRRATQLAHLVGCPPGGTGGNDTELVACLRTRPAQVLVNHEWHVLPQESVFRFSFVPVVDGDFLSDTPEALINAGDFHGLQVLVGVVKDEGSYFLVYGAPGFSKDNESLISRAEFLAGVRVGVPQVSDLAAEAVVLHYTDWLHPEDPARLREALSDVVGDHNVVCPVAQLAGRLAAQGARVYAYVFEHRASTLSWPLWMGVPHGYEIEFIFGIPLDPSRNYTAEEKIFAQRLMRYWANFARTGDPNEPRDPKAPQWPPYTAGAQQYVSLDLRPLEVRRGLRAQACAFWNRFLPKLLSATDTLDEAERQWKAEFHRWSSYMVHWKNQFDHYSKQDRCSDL

ferret = conditions: for Total number of individual incidences of: Retching / Total number of individual incidences of: Vomiting: individual ferrets, 150 mg/kg oral, naloxone 0.5 mg/kg s.c. pretreatment, observed 2 hours
[3] = test system: human colon circular muscle strips; format: cell-based; conditions: human colonic strips, EFS
[4] = Beagle, dog, in vivo, po, 1 mg/kg
[5] = test system: gastro-intestinal motility in the rat; assay: Charcoal propulsion test (gastro-intestinal motility) in the rat; conditions: oral; for delay of the passage of the charcoal meal (gut motility): 30 mg/kg dose or equimolar dose of prodrug
[6] = test system: guinea pig small intestine myenteric plexus longitudinal muscle; assay: tissue or blood; format: cell-based; conditions: for EC50: Cavia porcellus, read-out: EC50 for inhibition of contractility
[7] = listed as meptazinol valine carbamate
[8] = female, ferret, in vivo, po, 150 mg/kg
[9] = 10 mg/kg, 60 min before charcoal, 30 min after charcoal

CC(C)[C@@H](NC(=O)OC1=C2OC3C(=O)CCC4[C@H]5CC(CC1)C2[C@@]34CCN5C)C(=O)O (stereo partly drawn) [Hydromorphone valine carbamate, hydromorphone-(S)-valine carbamate trifluoroacetate]
Distilled water (pH 5.9): % remaining after 2 h/20° C. [1]: 100% | Simulated gastric fluid (pH 1.1): % remaining after 2 h/37° C. [1]: 100% | Simulated intestinal fluid (pH 6.8): % remaining after 2 h/37° C. [1]: 98%

CCC1(c2cccc(OC(=O)N[C@H](C(=O)O)C(C)C)c2)CCCCN(C)C1 (stereo partly drawn) [Meptazinol valine carbamate, meptazinol-(S)-valine carbamate trifluoroacetate]
Mean force of contraction ± sd ([2]; 0.01 μM): 104.47 | Mean force of contraction ± sd ([2]; 0.1 μM): 121.87 | Mean force of contraction ± sd ([2]; 0.5 μM): 86.04 | Mean force of contraction ± sd ([2]; 1.0 μM): 75.22 | Mean force of contraction ± sd ([2]; 10 μM): 65.57 | Mean force of contraction ± sd ([2]; 100 μM): 75.17 | Distilled water (pH 5.9): % remaining after 2 h/20° C. [1]: 100% | Simulated gastric fluid (pH 1.1): % remaining after 2 h/37° C. [1]: 100% | Simulated intestinal fluid (pH 6.8): % remaining after 2 h/37° C. [1]: 99% | acetyl choline esterase inhibitory action (acetyl choline esterase): loss of acetyl choline esterase inhibitory action | animals demonstrating any retching and vomiting (ferret; group of five ferrets, comparable molar dose, 2 hours): only one | Total number of individual incidences of: Retching (ferret): 0 (4×) and 2 | Total number of individual incidences of: Vomiting (ferret): 0 (4×) and 1 | Total number of individual incidences of: Retching (ferret; [7]): 2 | Total number of individual incidences of: Vomiting (ferret; [7]): 1 | Mean force of contraction ± sd ([3]; 0.01 μM): 89.77 | Mean force of contraction ± sd ([3]; 0.1 μM): 83.63 | Mean force of contraction ± sd ([3]; 0.5 μM): 79.00 | Mean force of contraction ± sd ([3]; 1.0 μM): 80.56 | Mean force of contraction ± sd ([3]; 10 μM): 76.92 | Mean force of contraction ± sd ([3]; 100 μM): 79.25

CCC1(c2cccc(O)c2)CCCCN(C)C1 (stereo not drawn) [Meptazinol]
animals that exhibited retching and emesis (ferret; [8]): 50% | episodes of vomiting in animals that responded (ferret; [8]): 1-17 | retches observed in a 2 hour period in animals that responded (ferret; [8]): 5-66 | T½ [4]: 2.8 h

CC(C)C(NC(=O)Oc1ccc2c3c1O[C@H]1C(=O)CC[C@@]4(O)[C@@H](C2)N(C)CC[C@]314)C(=O)O (stereo partly drawn) [Oxymorphone valine carbamate, oxymorphone-(S)-valine carbamate hydrochloride]
Distilled water (pH 5.9): % remaining after 2 h/20° C. [1]: 100% | Simulated gastric fluid (pH 1.1): % remaining after 2 h/37° C. [1]: 100% | Simulated intestinal fluid (pH 6.8): % remaining after 2 h/37° C. [1]: 97% | % change from vehicle-treated animals, Small intestine ([5]; 10 mg/kg): −4.9% | % change from vehicle-treated animals, Total gut length ([5]; 10 mg/kg): −3.9% | Group mean distance travelled by charcoal as % of (±sd) Small intestine [5, 9]: 68.5 ± 7.85% | Group mean distance travelled by charcoal as % of (±sd) Total gut length [5, 9]: 58.9 ± 6.95% | % change from vehicle-treated animals, Small intestine ([5]; 30 mg/kg): −13.7% | % change from vehicle-treated animals, Total gut length ([5]; 30 mg/kg): −13.1% | delay of the passage of the charcoal meal (gut motility) [5]: 14% | Fold difference [6]: 15.5 | EC50 [6]: 200 nM

CN1CC[C@]23c4c5ccc(O)c4O[C@H]2C(=O)CC[C@@]3(O)[C@H]1C5 [Oxymorphone]
% change from vehicle-treated animals, Small intestine ([5]; 1 mg/kg): −5.0% | % change from vehicle-treated animals, Total gut length ([5]; 1 mg/kg): −4.5% | % change from vehicle-treated animals, Small intestine ([5]; 3 mg/kg): −9.5% | % change from vehicle-treated animals, Total gut length ([5]; 3 mg/kg): −9.4% | % change from vehicle-treated animals, Small intestine ([5]; 10 mg/kg): −24.1% | % change from vehicle-treated animals, Total gut length ([5]; 10 mg/kg): −24.1% | % change from vehicle-treated animals, Small intestine ([5]; 30 mg/kg): −69.5% | % change from vehicle-treated animals, Total gut length ([5]; 30 mg/kg): −69.8% | delay of the passage of the charcoal meal (gut motility) [5]: 70% | T½ [4]: 2.2 h | EC50 [6]: 12.9 nM
